These results are taken from US8906925B2, “Pyrido[4,3-B]indoles containing rigid moieties” (Medivation Technologies, Inc., priority 2008, dated 2014).

The subject of one assay is C57Bl/6J mice. The experiment in a line: Elevated plus maze (EPM) test. It counts as in vivo, mouse. The settings on record: 0.03, 0.1, and 1 mg/kg, oral. From the text: This study aimed to test the anxiolytic properties of Compound No. 90 using the elevated plus maze (EPM) test in C57Bl/6J mice.
Male C57Bl/6J mice from Jackson Laboratories (Bar Harbor, Me.) were used for the […]. Mice were received at 6-weeks of age. Upon receipt, mice were assigned unique identification numbers (tail marked) and were group housed with 4 mice/cage in OPTI mouse ventilated cages. All animals remained housed in groups of four during the remainder of the study. All mice were acclimated to the colony room for approximately 2 week prior to testing and were subsequently tested at an average age of 8 weeks of age. During the period of acclimation, mice and rats were examined on a regular basis, handled, and weighed to assure adequate health and suitability. Animals were maintained on a 12 h/12 h light/dark cycle. The room temperature was maintained between 20 and 23° C. with a relative humidity maintained between 30% and 70%. Chow and water were provided ad libitum for the duration of the study. In each test, animals were randomly assigned across treatment groups. […]
The elevated plus maze test assessed anxiety. […] The time spent, distance traveled and entries in each arm were automatically recorded by the computer. […]
Data were analyzed using analysis of variance (ANOVA) followed by Fisher's LSD post hoc analysis when appropriate. […]

For a further assay, the system named is Sprague-Dawley rats. The experiment in a line: Two-trial novel object recognition in scopolamine treated rats. It counts as in vivo, rat. The settings on record: 0.3 mg/kg. As for the experimental part: Ennaceur, A., and Delacour, J. (1988), Behav. Brain Res. 31:47-59. […] See, e.g., Scali, C., et al., (1994), Neurosci. Letts. […] 53:277-283.
Male Sprague-Dawley rats between six and seven weeks old, weighing between 220-300 grams are obtained from Centre d'Elevage (Rue Janvier, B. P. 55, Le Genest-Saint-Isle 53940, France). The animals are housed in groups of 2 to 4 in polypropylene cages (with a floor area of 1032 cm^2) under standard conditions: at RT (22±2° C.), under a 12 h light/12 h dark cycle, with food and water provided ad libitum.
The experimental arena is a square wooden box (60 cm×60 cm×40 cm) painted dark blue, with 15 cm×15 cm black squares under a clear plexiglass floor. The arena and objects placed inside the arena are cleaned with water between each trial to eliminate any odor trails left by rats. […]
Novel object recognition test is comprised of two trials separated by an interval of 120 min. or 24 hours. […] The time required for each animal to complete 15 seconds of object exploration is determined, with a cut-off time of four min. […] Rats are placed back in the arena for three min., and exploration of both objects is determined. Locomotor activity of rats (number of times rats cross grid lines visible under the clear plexiglass floor) is scored for during T1 and T2. […]
Recognition scores and % of good learners for compounds of the invention are determined.

In assay [1] the target is human recombinant serotonin 5-HT2A receptor (Homo sapiens, UniProt P28223). The experiment in a line: 5-HT2A agonist/antagonist functional assay (cytosolic Ca2+ fluorescence, HEK-293 cells). In kind it is cell-based. An excerpt:
(§1) To determine for agonist or antagonist activity of compounds of the invention in functional assays, human recombinant serotonin 5-HT2A receptor expressed in human embryonic kidney (HEK-293) cells (Jerman J C, Brough S J, Gager T, Wood M, Coldwell M C, Smart D and Middlemiss D N, Eur J Pharmacol, 414: 23-30, 2001) or human recombinant serotonin 5-HT7 receptor expressed in CHO cells (Adham, et al. J. Pharmacol. Exp. Ther. 287:508-514, 1998) was used. Cells were suspended in DMEM buffer, and distributed in microplates. For the 5-HT2A assay, a cytoplasmic calcium fluorescent indicator which varies proportionally to the free cytosolic Ca^2+ ion concentration was mixed with probenicid in HBSS buffer complemented with 20 mM Hepes (pH 7.4), added into each well and equilibrated with the cells for 30 min. at 37° C. followed by 30 min. at 22° C. For the 5-HT7 assay, the reaction product was cAMP, detected by HTRF.
To measure 5-HT2A agonist effects, compounds of the invention, reference agonist or HBSS buffer (basal control) was added to the cells and changes in fluorescence intensity were measured using a microplate reader.
The standard reference antagonist was ketanserin (5-HT2A) or mesulergine (5-HT7), which was tested in each experiment at several concentrations to generate a concentration-response curve from which its IC50 value was calculated. […]

Assay [2] addresses T1, human recombinant serotonin 5-HT7 receptor (Homo sapiens, UniProt P34969).
T1 construct: expressed in transfected cells; host or cells: CHO cells
The experiment in a line: 5-HT7 antagonist functional assay (cAMP, HTRF, CHO cells). In kind it is cell-based. The settings on record: vs 100 nM 5-HT.
Description: as §1
The standard reference antagonist was ketanserin (5-HT2A) or mesulergine (5-HT7), which was tested in each experiment at several concentrations to generate a concentration-response curve from which its IC50 value was calculated. Compounds were screened at […] or lower, using DMSO as vehicle.
Background: Time-resolved FRET reads energy transfer from a long-lived donor to a nearby acceptor.

“And” between values parts separate entries of the source, which are not always exact repeats. Equal entries are not always repeated.

As usually defined, the EC50 is the concentration at which the effect is half-maximal. The term IC50 denotes the concentration that gives 50% inhibition.

human recombinant serotonin 5-HT2A receptor, sequence (P28223 whole entry): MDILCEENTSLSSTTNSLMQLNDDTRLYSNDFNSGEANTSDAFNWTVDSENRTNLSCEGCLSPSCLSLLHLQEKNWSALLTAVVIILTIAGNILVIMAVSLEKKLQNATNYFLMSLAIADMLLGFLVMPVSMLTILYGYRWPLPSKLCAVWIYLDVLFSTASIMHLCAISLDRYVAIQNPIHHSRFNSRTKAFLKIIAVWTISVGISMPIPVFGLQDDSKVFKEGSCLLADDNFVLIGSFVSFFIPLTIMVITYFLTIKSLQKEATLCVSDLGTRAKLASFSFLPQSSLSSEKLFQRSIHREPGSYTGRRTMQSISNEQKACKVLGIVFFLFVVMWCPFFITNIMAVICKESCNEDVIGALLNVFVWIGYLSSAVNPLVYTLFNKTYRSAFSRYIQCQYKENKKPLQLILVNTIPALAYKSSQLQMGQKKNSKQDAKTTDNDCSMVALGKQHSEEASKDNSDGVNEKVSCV
T1 sequence (P34969 whole entry): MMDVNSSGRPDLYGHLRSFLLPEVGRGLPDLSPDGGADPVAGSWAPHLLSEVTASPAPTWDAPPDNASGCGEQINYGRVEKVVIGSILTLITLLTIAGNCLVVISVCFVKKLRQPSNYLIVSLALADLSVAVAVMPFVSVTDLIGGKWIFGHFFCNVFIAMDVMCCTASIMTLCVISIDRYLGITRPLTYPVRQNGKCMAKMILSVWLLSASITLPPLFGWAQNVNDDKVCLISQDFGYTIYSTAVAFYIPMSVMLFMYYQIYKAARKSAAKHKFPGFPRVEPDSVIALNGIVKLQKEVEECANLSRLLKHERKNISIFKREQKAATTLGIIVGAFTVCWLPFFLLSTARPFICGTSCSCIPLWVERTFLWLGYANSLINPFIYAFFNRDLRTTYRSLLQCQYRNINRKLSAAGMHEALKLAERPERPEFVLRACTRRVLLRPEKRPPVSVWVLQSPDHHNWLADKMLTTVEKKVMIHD

For the compound `C/C(=C\n1c2c(c3cc(Cl)ccc31)CN(C)CC2)c1ccncc1` [Compound 90, (E)-8-chloro-2,3,4,5-tetrahydro-2-methyl-5-(2-(pyridin-4-yl)prop-1-enyl)-1H-pyrido[4,3-b]indole], the “anxiolytic-like effect in the EPM test compared to vehicle” value in the assay with C57Bl/6J mice is listed as “did not exert any anxiolytic-like effect”. In addition, the “activity in object recognition in the presence of scopolamine” value in the assay on Sprague-Dawley rats is reported as “activity”.
Take `C/C(=C\n1c2c(c3cc(Cl)ccc31)CN(C)CC2)c1ccc(F)cc1` [Compound 83, (E)-8-chloro-5-(2-(4-fluorophenyl)prop-1-enyl)-2,3,4,5-tetrahydro-2-methyl-1H-pyrido[4,3-b]indole]: in assay [1], the EC50 was determined as 3100 nM. For the same compound, the IC50 in assay [1] (vs 3 nM 5-HT) was 970 nM and > 1000 nM; in assay [2], 460 nM and 770 nM.
